According to US7074761B1, “Peptides and production and use thereof” (Takeda Chemical Ind., Ltd., priority 1996, dated 2006):
Where a SMILES comes first, the peptide text is derived from it. Bridges are numbered along the chain shown (N, C = ends).

What was measured:
human SSTR3 = target: T1, human SSTR3 (Homo sapiens, UniProt P32745); experiment: cAMP accumulation inhibiting activity in SSTR3 expressing CHO cells (forskolin stimulated); format: cell-based; conditions: forskolin 10 μM, CHO cells SSTR3-15-19; read-out: ED50, inhibition of intracellular cAMP accumulation, SSTR3
T1 construct: expressed in transfected cells; host or cells: CHO(dhfr-) cells, clone SSTR3-15-19, plasmid pA-1-11-SSTR3 (vector pAKKO-111)
Experimental: For measuring the intracellular accumulations of cyclic adenosine 3′,5′-monophosphate (cAMP), the human somatostatin receptor expressing cell lines SSTR2-HS5-9, SSTR3-15-19, SSTR4-1-2 and SSTR5-32-4 respectively described in Reference Example 2 (3), Reference Example 3 (3), Reference Example 4 (3) and Reference Example 5 (3) were multiplied on 24-well plates until confluency. Said cells were washed with two 1-ml portions of medium A [Dulbecco-'s modified Eagle's medium (DMEM), 20 mM 2-[4-(2-hydroxyethyl)-1-piperazinyl]ethanesulfonic acid (HEPES) (pH. 7.5), 0.2% BSA, 0.2 mM 3-isobutyl-1-methylxanthine (IBMX)] and then 400 μl of medium A was added to each well and incubation was carried out at 37° C. for 1 hour. To each well were added 50 μl of a hCS-15 or hCS-17 solution (each diluted to a concentration 10 times the final concentration with medium A) and 50 μl of a forskolin solution (final concentration: 10 μM), and incubation was carried out at 37° C. for 30 minutes. The cells were washed with two 1-ml portions of medium A and then 500 μl of medium A and 100 μL of 20% aqueous perchloric acid solution were added to each well, followed by standing at 4° C. for 20 minutes for cell lysis. […] The amount of cAMP contained in this extract was determined using an Amersham's kit (cAMP EIA system).

human SSTR4 = target: T2, human SSTR4 (Homo sapiens, UniProt P31391); experiment: [125I]-somatostatin binding inhibition, SSTR4 CHO cell membrane fraction; conditions: 25° C., 60 minutes
T2 construct: expressed in transfected cells; host or cells: CHO(dhfr-) cells, clone SSTR4-1-2, plasmid pA-1-11-SSTR4 (vector pAKKO-111)
Experimental: CHO(dhfr^−) cells (1×10^6 cells) were cultured on HAM F12 medium containing 10% fetal bovine serum in a dish with a diameter of 8 cm for 24 hours. Into these cells was introduced 10 μg of the human SSTR4 DNA expression plasmid pA-1-11-SSTR4 obtained as described above in (2) by the calcium phosphate method (Cell Phect Transfection Kit; Pharmacia). At 24 hours after transfection, the medium was exchanged for DMEM containing 10% dialyzed fetal bovine serum, and cells forming a colony on this medium (namely DHFR^+ cells) were selected. Further, the cells selected were treated by the limiting dilution method for cloning from a single cell, and the cells thus cloned were measured for their somatostatin receptor protein expression ability by the binding assay described in Reference Example 1 (3). In this manner, a cell line with high somatostatin-binding activity, SSTR4-1-2, was selected.
The human somatostatin receptor expressing CHO cell lines SSTR1-8-3, SSTR2-HS5-9, SSTR3-15-19, SSTR4-1-2 and SSTR5-32-4 (10^9 cells each) were respectively suspended in phosphate buffered physiological saline supplemented with 5 mM EDTA (PBS-EDTA) and centrifuged. To each cell pellet was added 10 ml of cell homogenation buffer (10 mM NaHCO3, 5 mM EDTA, pH=7.5), followed by homogenation with a Polytron homogenizer. The homogenate was centrifuged at 400×g for 15 minutes, and the supernatant obtained was further centrifuged at 100,000×g for 1 hour to give a membrane fraction as a precipitate. […]
The membrane fractions prepared in Reference Example 6 were each diluted to 3 μg/ml with assay buffer. […] After filtration, the radioactivity of [^125I]-somatostatin remaining on the filter paper was measured. For each test substance, the binding inhibition percentage (%) was calculated according to the formula: PBM=(B−NSB)/(B0−NSB)×100 (where PBM: percent maximum binding; B: radioactivity when the test sample is added; B0: maximum bound radioactivity; NSB: non-specifically bound radioactivity). […]

T2 sequence (P31391 whole entry): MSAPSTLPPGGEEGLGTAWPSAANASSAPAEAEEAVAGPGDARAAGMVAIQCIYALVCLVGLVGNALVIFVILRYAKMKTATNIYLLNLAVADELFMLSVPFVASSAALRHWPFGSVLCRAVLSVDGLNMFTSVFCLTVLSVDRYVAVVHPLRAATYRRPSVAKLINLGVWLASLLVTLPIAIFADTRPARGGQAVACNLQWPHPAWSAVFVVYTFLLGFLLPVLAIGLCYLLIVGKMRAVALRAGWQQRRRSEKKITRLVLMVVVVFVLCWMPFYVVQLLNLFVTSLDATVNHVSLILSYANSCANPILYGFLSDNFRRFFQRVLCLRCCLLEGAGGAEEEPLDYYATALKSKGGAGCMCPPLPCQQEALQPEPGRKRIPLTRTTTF
T1 sequence (P32745 whole entry): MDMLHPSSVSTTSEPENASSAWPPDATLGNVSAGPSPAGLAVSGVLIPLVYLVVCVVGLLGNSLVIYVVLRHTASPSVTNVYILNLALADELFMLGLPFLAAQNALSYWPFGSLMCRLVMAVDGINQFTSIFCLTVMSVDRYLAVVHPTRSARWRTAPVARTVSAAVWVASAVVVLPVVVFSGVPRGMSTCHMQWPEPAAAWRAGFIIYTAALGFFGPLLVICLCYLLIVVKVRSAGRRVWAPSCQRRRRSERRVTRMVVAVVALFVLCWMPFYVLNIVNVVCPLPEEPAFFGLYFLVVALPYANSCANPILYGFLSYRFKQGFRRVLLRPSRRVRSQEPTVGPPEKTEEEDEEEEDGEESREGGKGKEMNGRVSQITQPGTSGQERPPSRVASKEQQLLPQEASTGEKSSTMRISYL

| Compound | EC50 (human SSTR3) [nM] | IC50 (human SSTR4) [nM] |
| --- | --- | --- |
| CSCC[C@H](N)C(=O)N1CCC[C@H]1C(=O)N[C@H]1CSSC[C@@H](C(=O)N[C@@H](CCCCN)C(=O)O)NC(=O)[C@H](CO)NC(=O)[C@H](CO)NC(=O)[C@H](Cc2ccccc2)NC(=O)[C@H]([C@@H](C)O)NC(=O)[C@H](CCCCN)NC(=O)[C@H](Cc2c[nH]c3ccccc23)NC(=O)[C@H](Cc2ccccc2)NC(=O)[C@H](Cc2ccccc2)NC(=O)[C@H](CC(N)=O)NC(=O)[C@H](CCCNC(=N)N)NC1=O [hCS-15] (H-MPCRNFFWKTFSSCK-OH; disulfide 3-14; N-terminus and C-terminus assumed) | 1 | 0.6 |
| CSCC[C@H](NC(=O)[C@H](CCCNC(=N)N)NC(=O)[C@@H](N)CC(=O)O)C(=O)N1CCC[C@H]1C(=O)N[C@H]1CSSC[C@@H](C(=O)N[C@@H](CCCCN)C(=O)O)NC(=O)[C@H](CO)NC(=O)[C@H](CO)NC(=O)[C@H](Cc2ccccc2)NC(=O)[C@H]([C@@H](C)O)NC(=O)[C@H](CCCCN)NC(=O)[C@H](Cc2c[nH]c3ccccc23)NC(=O)[C@H](Cc2ccccc2)NC(=O)[C@H](Cc2ccccc2)NC(=O)[C@H](CC(N)=O)NC(=O)[C@H](CCCNC(=N)N)NC1=O [hCS-17] | 1 | 0.5 |
